How the values were obtained:
[1] = Liquid; for viscosity: 101 kPa, Capillary tube (Ostwald / Ubbelohde) method; for mass density: 101.3 kPa
[2] = xn = mol fraction of the nth substance listed; conditions: Liquid, x2 = 0; for viscosity: 101 kPa, Capillary tube (Ostwald / Ubbelohde) method; for mass density: 101.3 kPa

CC(C)CCl [1-chloro-2-methylpropane]
[1]
Conditions | mass density [kg/m3] | viscosity [mPa·s]
283.15 K | 888.845 | 0.5155
288.15 K | 883.211 | 0.4833
293.15 K | 877.539 | 0.454
298.15 K | 871.533 | 0.4296
303.15 K | 866.096 | 0.4112
308.15 K | 860.319 | 0.3921
313.15 K | 853.902 | 0.3726

CCCCCl [1-chlorobutane]
[1]
Conditions | mass density [kg/m3] | viscosity [mPa·s]
283.15 K | 897.339 | 0.4993
288.15 K | 891.855 | 0.4701
293.15 K | 886.335 | 0.4433
298.15 K | 880.705 | 0.4214
303.15 K | 875.204 | 0.405
308.15 K | 869.585 | 0.3885
313.15 K | 863.882 | 0.3642

CC(C)(C)Cl [2-chloro-2-methylpropane]
[1]
Conditions | mass density [kg/m3] | viscosity [mPa·s]
283.15 K | 855.249 | 0.598
288.15 K | 849.243 | 0.5538
293.15 K | 843.191 | 0.5135
298.15 K | 837.096 | 0.4768
303.15 K | 830.958 | 0.4438
308.15 K | 824.772 | 0.4196
313.15 K | 818.536 | 0.3904

CCC(C)Cl (stereo unspecified) [2-chlorobutane]
[1]
Conditions | mass density [kg/m3] | viscosity [mPa·s]
283.15 K | 884.34 | 0.4631
288.15 K | 878.756 | 0.4365
293.15 K | 873.13 | 0.4167
298.15 K | 867.474 | 0.3993
303.15 K | 861.779 | 0.38
308.15 K | 856.044 | 0.3615
313.15 K | 850.266 | 0.3443

CC(C)OC(C)C [diisopropyl ether]
[1]
Conditions | mass density [kg/m3] | viscosity [mPa·s]
283.15 K | 733.833 | 0.3646
288.15 K | 728.692 | 0.3486
293.15 K | 723.509 | 0.334
298.15 K | 718.289 | 0.3178
303.15 K | 713.032 | 0.3001
308.15 K | 707.727 | 0.2857
313.15 K | 702.378 | 0.2723

CC(C)OC(C)C [diisopropyl ether] + CC(C)(C)Cl
[2]
Conditions | mass density [kg/m3] | viscosity [mPa·s]
283.15 K | 733.833 | 0.3646
288.15 K | 728.692 | 0.3486
293.15 K | 723.509 | 0.334
298.15 K | 718.289 | 0.3178
303.15 K | 713.032 | 0.3001
308.15 K | 707.727 | 0.2857
313.15 K | 702.378 | 0.2723

CC(C)OC(C)C [diisopropyl ether] + CC(C)CCl
[2]
Conditions | mass density [kg/m3] | viscosity [mPa·s]
283.15 K | 733.833 | 0.3646
288.15 K | 728.692 | 0.3486
293.15 K | 723.509 | 0.334
298.15 K | 718.289 | 0.3178
303.15 K | 713.032 | 0.3001
308.15 K | 707.727 | 0.2857
313.15 K | 702.378 | 0.2723

CC(C)OC(C)C [diisopropyl ether] + CCC(C)Cl
[2]
Conditions | mass density [kg/m3] | viscosity [mPa·s]
283.15 K | 733.833 | 0.3646
288.15 K | 728.692 | 0.3486
293.15 K | 723.509 | 0.334
298.15 K | 718.289 | 0.3178
303.15 K | 713.032 | 0.3001
308.15 K | 707.727 | 0.2857
313.15 K | 702.378 | 0.2723

CC(C)OC(C)C [diisopropyl ether] + CCCCCl
[2]
Conditions | mass density [kg/m3] | viscosity [mPa·s]
283.15 K | 733.833 | 0.3646
288.15 K | 728.692 | 0.3486
293.15 K | 723.509 | 0.334
298.15 K | 718.289 | 0.3178
303.15 K | 713.032 | 0.3001
308.15 K | 707.727 | 0.2857
313.15 K | 702.378 | 0.2723
